In article PMC10447287, “Optimisation of Pharmaceutical Cocrystal Dissolution Performance through a Synergistic Precipitation Inhibition” (Pharmaceutical Research, 2023):
Blank lines part the entries; values can stand above or below the molecule they belong to.

Legend:
[1] = Equilibrium solubility of FFA in DDW and PBS in the absence and presence of a predissolved polymer or a combination; assay type: physicochemical
Method: The FFA solubility was determined by suspending an excess amount of crystalline materials of FFA I in small vials with 20 mL of a selected dissolution medium (i.e., DDW or PBS pH 4.5) in the absence and presence of a predissolved single polymer and a combination. The detailed polymers and their corresponding concentrations were 0.2 mg/mL of PVP-VA, 1 mg/mL of PEG and 0.2 mg/mL of SLP, which were based on the previous study and the solubility curve obtained in the preliminary study in Figure S5 in the supporting materials. All of the suspensions were kept at 37 ± 0.5°C in a water bath with a shaking rate of 150 rpm for 24 h. Each of the supernatants was separated from excess solids in solution by centrifugation at 13,000 RPM for 1 min in an MSB 010.CX2.5 centrifuge (MSE Ltd., London, U.K.). Subsequently, the supernatant was diluted using ethanol, and the FFA concentration was determined using HPLC. The solid residues retrieved from the tests were dried for 24 h at ambient temperature and then analysed by PXRD. Each of the experiments was conducted in triplicate, and data were reported as an average concentration. Additionally, the FFA solubility in PBS pH 6.8 at 37 ± 0.5°C was also measured in triplicate. The solids were scanned by D2 phaser diffractometer (Bruker U.K. Limited, Coventry, UK) with […] radiation operating at voltage of 30 kV and current of 10 mA. The scanning angle ranged from 2°-40° of 2θ. The scanning time per step was 0.4 s. The scan step size was 0.02° of 2θ.

[2] = Particle size distribution of sieved powders; assay type: physicochemical; settings: sieved particles < 250 μm
Method: All samples (i.e., FFA, FFA-NIC cocrystal and FFA-TP cocrystal) used in the dissolution tests were slightly ground by a mortar and pestle and sieved by a 60-mesh sieve (below 250 μm) to reduce the influence of particle size on the dissolution rates. The particle size distributions of the test samples were measured using a SYNC Analyzer (MICROTRAC Retsch GmbH, Hann, Germany). The particle size distributions (D10, D50, D90 and mean particle size) of the solid particles were compared. The data were analysed by the Microtrac FLEX software (12.0.0.1).

[3] = Dissolution tests of powders in DDW with predissolved polymer or combination (USP type II paddle); assay type: physicochemical; settings: for solid residues after dissolution tests (PXRD): DDW in the absence or presence of predissolved polymers; for FFA concentration in solution after 4 h / FFA DPP (dissolution performance parameter): DDW; for FFA concentration in solution after 4 h: no polymer, powder dissolution; for FFA DPP (dissolution performance parameter): 0-4 h, reference same powder in DDW
Method: In vitro dissolution tests were performed with a USP type II paddle apparatus (DT 126 light, Erweka GmbH, Germany) at 37 ± 0.5°C with a paddle speed of 50 rpm in 400 mL of DDW in the absence and presence of a predissolved polymer (i.e., 0.2 mg/mL of PVP-VA, 1 mg/mL of PEG, 0.2 mg/mL of SLP) or a combination of two polymers (i.e., 0.2 mg/mL PVP-VA + 1 mg/mL PEG, […]).
71.7 mg of FFA-NIC cocrystal powders with the equivalent of 50 mg FFA I powders were used in each of the dissolution tests. Samples of 1 ± 0.1 mL were withdrawn from the dissolution vessel at the predefined time points of 5, 10, 15, 30, 60, 120, 180 and 240 min. The supernatant of each of the samples was separated from the excess solids by centrifugation at 13,000 RPM for 1 min in an MSE Micro Centaur. HPLC was used to determine the concentrations of FFA and NIC in solution. Solid residues obtained from the experiments were dried at room temperature and analysed by PXRD. All experiments were repeated in triplicate.
For comparison, the above dissolution tests were also repeated using 50 mg of pure FFA I powders and 82.0 mg of FFA-TP cocrystal powders.
DPP was used to evaluate the dissolution profile of the test powders in comparison to a reference system, which is defined as,4 DPP=AUCC(t)-AUCCR(t)/AUCCR(t)×100% where AUCC(t) is the area under the curve (AUC) of a dissolution profile C(t) , indicating the amount of drug dissolved is maintained over the period of the dissolution time from 0 to t, and AUCCR(t) is the AUC of a reference dissolution profile CR(t) .
The solids were scanned by D2 phaser diffractometer (Bruker U.K. Limited, Coventry, UK) with […] radiation operating at voltage of 30 kV and current of 10 mA. The scanning angle ranged from 2°-40° of 2θ. The scanning time per step was 0.4 s. The scan step size was 0.02° of 2θ.

[4] = Ionisation constants of flufenamic acid; assay type: physicochemical; settings: at pH 4.5
[5] = set-up: method as in doi:10.1007/s10953-010-9642-6; settings: cited from earlier work
[6] = predissolved PVP-VA (0.2 mg/mL)
[7] = predissolved SLP (0.2 mg/mL) + PVP-VA (0.2 mg/mL)

- solubility at 24 h ([1]; DDW, 37 °C, aqueous with cosolvent or surfactant or cyclodextrin, thermodynamic from solid, DDW, predissolved PEG (1 mg/mL) + PVP-VA (0.2 mg/mL), 37°C): 0.0209 ± 0.00535 mg/mL
- solubility at 24 h ([1]; DDW, 37 °C, aqueous with cosolvent or surfactant or cyclodextrin, thermodynamic from solid, DDW, predissolved SLP (0.2 mg/mL) + PVP-VA (0.2 mg/mL), 37°C): 0.119 ± 0.0033 mg/mL
- solubility at 24 h ([1]; DDW, 37 °C, aqueous with cosolvent or surfactant or cyclodextrin, thermodynamic from solid, predissolved PEG (1 mg/mL)): 0.0178 ± 0.00172 mg/mL
- solubility at 24 h ([1]; DDW, 37 °C, aqueous with cosolvent or surfactant or cyclodextrin, thermodynamic from solid, predissolved PVP-VA (0.2 mg/mL)): 0.012 ± 0.0014 mg/mL
- solubility at 24 h ([1]; DDW, absence of polymer, 37°C): 0.0101 ± 0.00079 mg/mL
- solubility at 24 h ([1]; DDW, predissolved SLP (0.2 mg/mL), 37°C): 0.111 ± 0.0162 mg/mL
- solubility at 24 h ([1]; PBS pH 4.5, 37 °C, pH 4.5, aqueous buffer, thermodynamic from solid, PBS pH 4.5, absence of polymer, 37°C): 0.0183 ± 0.00239 mg/mL
- solubility at 24 h ([1]; PBS pH 4.5, 37 °C, pH 4.5, aqueous with cosolvent or surfactant or cyclodextrin, thermodynamic from solid, PBS pH 4.5, predissolved PEG (1 mg/mL) + PVP-VA (0.2 mg/mL), 37°C): 0.0114 ± 0.00022 mg/mL
- solubility at 24 h ([1]; PBS pH 4.5, 37 °C, pH 4.5, aqueous with cosolvent or surfactant or cyclodextrin, thermodynamic from solid, PBS pH 4.5, predissolved PVP-VA (0.2 mg/mL), 37°C): 0.011 ± 0.00132 mg/mL
- solubility at 24 h ([1]; PBS pH 4.5, 37 °C, pH 4.5, aqueous with cosolvent or surfactant or cyclodextrin, thermodynamic from solid, PBS pH 4.5, predissolved SLP (0.2 mg/mL) + PVP-VA (0.2 mg/mL), 37°C): 0.0411 ± 0.0042 mg/mL
- solubility at 24 h ([1]; PBS pH 4.5, 37 °C, pH 4.5, aqueous with cosolvent or surfactant or cyclodextrin, thermodynamic from solid, PBS pH 4.5, predissolved SLP (0.2 mg/mL), 37°C): 0.0419 ± 0.0025 mg/mL
- solubility at 24 h ([1]; PBS pH 4.5, pH 4.5, PBS pH 4.5, predissolved PEG (1 mg/mL), 37°C): 0.00901 ± 0.00026 mg/mL
- solubility ([1]; PBS pH 6.8, 37 °C, pH 6.8, aqueous buffer, thermodynamic from solid, PBS pH 6.8, absence of polymer, 37°C): 0.7411 ± 0.00627 mg/mL
- solid form of residues after solubility tests (PXRD) ([1]; after 24 h in various media): remained the form I
- D10 [2]: 5.19 μm
- D50 [2]: 13.58 μm
- D90 [2]: 84.86 μm
- Mean particle size [2]: 31.71 μm
- solid residues after dissolution tests (PXRD) [3]: no phase transformation
- FFA concentration in solution after 4 h [3]: 4.99 µg/mL
- FFA DPP (dissolution performance parameter) [3, 6]: -24%
- FFA DPP (dissolution performance parameter) [3, 7]: 50%
- FFA DPP (dissolution performance parameter) ([3]; predissolved SLP (0.2 mg/mL)): 30%
- fraction in the neutral form [4]: more than 75%
SMILES: O=C(O)c1ccccc1Nc1cccc(C(F)(F)F)c1 [FFA, Flufenamic acid]
- isoelectric point pH [5]: 3.88 ± 0.03
- pKa1 (basic group) [5]: 2.92 ± 0.01
- pKa2 (acidic group) [5]: 4.84 ± 0.04

- D10 [2]: 5.25 μm
- D50 [2]: 12.32 μm
- D90 [2]: 56.64 μm
- Mean particle size [2]: 23.92 μm
- solid residues after dissolution tests (PXRD) [3]: the same as the starting materials
- FFA concentration in solution after 4 h [3]: 8.35 µg/mL
- FFA DPP (dissolution performance parameter) ([3]; predissolved PEG (1 mg/mL) + PVP-VA (0.2 mg/mL)): 12%
- FFA DPP (dissolution performance parameter) ([3]; predissolved PEG (1 mg/mL)): 24%
- FFA DPP (dissolution performance parameter) [3, 6]: -17%
- FFA DPP (dissolution performance parameter) [3, 7]: 23%
- FFA DPP (dissolution performance parameter) ([3]; predissolved SLP (0.2 mg/mL)): 3%
SMILES: Cn1c(=O)c2[nH]cnc2n(C)c1=O.O=C(O)c1ccccc1Nc1cccc(C(F)(F)F)c1 [FFA-TP cocrystal]
